Test results from patent US8603527B2, “Pharmaceutical formulations of a substituted diaminopurine” (Signal Pharmaceuticals, LLC, priority 2010, dated 2013).

Assay: clinical
Conditions: human, in vivo, 100 mg; for AUC(0-t): AUC0-t; for Vd/F: Vz/F
Source text: Methods: This was an open-label study conducted at a single study center in conformance with good clinical practice (GCP). Thirty-six eligible healthy male and female subjects were enrolled and distributed into 3 groups as follows:
Group 1—A total of 12 females between 18 to 55 years of age, inclusive (±5 years age-matched and ±10% weight-matched to subjects in Group 2).
Group 2—A total of 12 males between 18 to 55 years of age, inclusive (±5 years age-matched and ±10% weight-matched to subjects in Group 1).
Group 3—A total of 12 males and females between 65 and 85 years of age, inclusive (weight and gender-matched to subjects in Groups 1 and 2), with a minimum of 3 subjects of each gender. Seven of the subjects in Group 3 were age 70 or above, with 2 of those subjects being >75 years of age.
Group 1 (Healthy Females) and Group 3 (Elderly Males and Females): Subjects were screened within 21 days of dosing and eligible subjects were admitted to the study center on Day −1 (i.e., at least 12 hours predose) for baseline assessments and confirmation of eligibility. A single oral dose of 100 mg Compound I was administered on Day 1 following an overnight fast of at least 8 hours. Subjects were discharged from the study center the morning of Day 3 upon completion of study procedures and returned to the study center for PK blood draws and safety assessments on Days 4, 5, and 6. The end-of-study (EOS) evaluation also occurred on Day 6. Subjects returned to the study center for a follow-up visit between 7 and 10 days from EOS. Serial blood samples were collected predose and up to 120 hours postdose for the determination of plasma Compound I concentrations. Safety was monitored throughout the study; safety evaluations included AE reporting, physical examinations, vital sign measurements, ECGs, and clinical laboratory safety tests. All AEs and concomitant medications were assessed and recorded throughout the study from the time the ICF was signed through follow-up.
Group 2 (Healthy Males): Subjects in Group 2 participated in this portion of the study to evaluate food effect using a randomized, open-label, single dose, 2-period (Period 1 and Period 2), 2-sequence, 2-way crossover design. Subjects were screened within 21 days of dosing and eligible subjects were admitted to the study center on Day −1 (i.e., at least 12 hours predose) for baseline assessments and confirmation of eligibility. On Day 1 of Period 1, following an overnight fast of at least 8 hours, subjects were randomized to receive 100 mg Compound I either with or without food (6 subjects received Compound I with food and 6 subjects received Compound I without food) according to a random code. Subjects were discharged from the study center the morning of Day 3 upon completion of study procedures and returned to the study center for PK blood draws and safety assessments on Days 4, 5, and 6.
Following an interdose interval of 10 to 15 days (i.e., at least 10 days and no more than 15 days from the dosing day (Day 1) of Period 1 to Day 1 of Period 2), subjects were re-admitted to the study center on Day −1 of Period 2 (i.e., at least 12 hours predose) for baseline assessments and reconfirmation of eligibility. On Day 1 of Period 2, assigned treatment was switched. Subjects who received Compound I with food in Period 1 received Compound I without food in Period 2 and subjects who received Compound I without food in Period 1 received Compound I with food in Period 2. Subjects were discharged from the study center the morning of Day 3 upon completion of study procedures and returned to the study center for PK blood draws and safety assessments on Days 4, 5, and 6. Day 6 of Period 2 also served as the EOS evaluation. Subjects returned to the study center for a follow-up visit between 7 and 10 days from EOS. In each study period, serial blood samples were collected predose and up to 120 hours postdose for the determination of plasma Compound I concentrations. […]

Q: For O[C@H]1CC[C@H](Nc2ncc3nc(Nc4c(F)cc(F)cc4F)n([C@H]4CCOC4)c3n2)CC1 [Compound I, 4-((9-((3S)-tetrahydro-3-furanyl)-8-((2,4,6-trifluorophenyl)amino)-9H-purin-2-yl)amino)-trans-cyclohexanol], which AUC(0-t) (both sexes, po, Geometric Mean) is on record?
A: The AUC(0-t) was 13500 ng·h/mL.

Q: What about the AUC(0-t) (both sexes, po, Geometric Means) of the same compound?
A: The AUC(0-t) was 13500 ng·h/mL.

Q: And the AUC(0-inf) (both sexes, po, AUC0-∞ (geometric mean))?
A: Its AUC(0-inf) is 14400 ng·h/mL.

Q: What about the AUC(0-inf) (both sexes, po, AUC0-∞, Geometric Mean) of the same compound?
A: Its AUC(0-inf) is 14400 ng·h/mL.

Q: What about the AUC(0-inf) (both sexes, po, AUC0-∞, Geometric Means) of the same compound?
A: The AUC(0-inf) was 14300 ng·h/mL.

Q: What about the AUC (both sexes, po, AUCO-inf) of the same compound?
A: The AUC was 14800 ng·h/mL.

Q: And the AUC (both sexes, po, AUCO-t)?
A: Its AUC is 14200 ng·h/mL.

Q: And the Cmax (both sexes, po, Cmax)?
A: Its Cmax is 742 ng/mL.

Q: What about the Cmax (both sexes, po, Cmax (geometric mean)) of the same compound?
A: The Cmax was 649 ng/mL.

Q: What about the Cmax (both sexes, po, Cmax, Geometric Mean) of the same compound?
A: Its Cmax is 602 ng/mL.

Q: And the Cmax (both sexes, po, Cmax, Geometric Means)?
A: The Cmax was 654 ng/mL.

Q: And the half-life (both sexes, po, T1/2)?
A: Its half-life is 24.5 h.

Q: And the Tmax (both sexes, po, Tmax)?
A: Its Tmax is 1.97 h.

Q: What about the Tmax (both sexes, po, Tmax, Median) of the same compound?
A: Its Tmax is 2 h.

Q: What about the Vd/F (both sexes, po) of the same compound?
A: Its Vd/F is 250 L.

Q: What about the half-life (both sexes, po, mean t1/2) of the same compound?
A: Its half-life is 23 to 34 h.

Q: What about the Tmax (both sexes, po, median Tmax) of the same compound?
A: Its Tmax is 1 to 2 h.

Q: What about the half-life (both sexes, po, t1/2, Geometric Mean) of the same compound?
A: Its half-life is 27.9 h.

Q: What about the “90% CI for the ratio (elderly/young) of geometric means, AUC0-t” value (both) of the same compound?
A: The value was 86.7, 119.1.

Q: And the “90% CI for the ratio (elderly/young) of geometric means, AUC0-∞” value (both)?
A: The value was 84.0, 117.3.

Q: And the “90% CI for the ratio (elderly/young) of geometric means, Cmax” value (both)?
A: The value was 82.0, 143.8.

Q: What about the “90% CI for the ratio (female/male) of geometric means, AUC0-t” value (both) of the same compound?
A: Its value is 81.7, 112.1.

Q: What about the “90% CI for the ratio (female/male) of geometric means, AUC0-∞” value (both) of the same compound?
A: Its value is 79.7, 111.4.

Q: And the “90% CI for the ratio (female/male) of geometric means, Cmax” value (both)?
A: Its value is 72.3, 126.7.

Q: And the “AUC0-t, Geometric Mean” value (both, po)?
A: Its value is 13679.40 ng·h/mL.

Q: What about the “AUC0-t, Geometric Means” value (both, po) of the same compound?
A: Its value is 13722.1 ng·h/mL.

Q: And the “AUC0-∞ (geometric mean)” value (both, po)?
A: Its value is 14239.14 ng·h/mL.

Q: And the “AUC0-∞, Geometric Mean” value (both, po)?
A: The value was 14239.14 ng·h/mL.

Q: And the “AUC0-∞, Geometric Means” value (both, po)?
A: Its value is 14398.3 ng·h/mL.

Q: And the “Cmax, Geometric Means” value (both, po)?
A: Its value is 602.0 ng/mL.

Q: And the “Tmax, Median” value (both, po)?
A: The value was 1.75 h.

Q: And the “median Tmax” value (both, po)?
A: Its value is “approximately 1.5 hours”.

Q: And the “t1/2, Geometric Mean” value (both, po)?
A: The value was 23.61 h.

Q: And the AUC(0-t) (female, po, Geometric Mean)?
A: The AUC(0-t) was 13100 ng·h/mL.

Q: And the AUC(0-t) (female, po, Geometric Means)?
A: Its AUC(0-t) is 13300 ng·h/mL.

Q: What about the AUC(0-inf) (female, po, AUC0-∞) of the same compound?
A: The AUC(0-inf) was 13700 ng·h/mL.

Q: What about the AUC(0-inf) (female, po, AUC0-∞, Geometric Mean) of the same compound?
A: Its AUC(0-inf) is 13700 ng·h/mL.

Q: What about the AUC(0-inf) (female, po, AUC0-∞, Geometric Means) of the same compound?
A: Its AUC(0-inf) is 13900 ng·h/mL.

Q: What about the AUC (female, po, AUCO-inf) of the same compound?
A: Its AUC is 13300 ng·h/mL.

Q: What about the AUC (female, po, AUCO-t) of the same compound?
A: The AUC was 12700 ng·h/mL.

Q: What about the Cmax (female, po, Cmax) of the same compound?
A: The Cmax was 587 ng/mL.

Q: And the Cmax (female, po, Cmax, Geometric Mean)?
A: The Cmax was 587 ng/mL.

Q: And the Cmax (female, po, Cmax, Geometric Means)?
A: The Cmax was 614 ng/mL.

Q: What about the half-life (female, po, T1/2) of the same compound?
A: Its half-life is 24.4 h.

Q: And the Tmax (female, po, Tmax)?
A: Its Tmax is 2.19 h.

Q: And the Tmax (female, po, Tmax, Median)?
A: Its Tmax is 2.06 h.

Q: What about the Vd/F (female, po) of the same compound?
A: Its Vd/F is 265 L.

Q: What about the Tmax (female, po, median Tmax) of the same compound?
A: The Tmax was 2 h.

Q: What about the half-life (female, po, t1/2, Geometric Mean) of the same compound?
A: The half-life was 24.6 h.

Q: And the “90% CI of the median difference (elderly-young), Tmax” value?
A: The value was −0.5, 0.5.

Q: What about the “90% CI of the median difference (fed-fast), Tmax” value of the same compound?
A: Its value is 2.00, 3.00.

Q: And the “90% CI of the median difference (female-male), Tmax” value?
A: Its value is 0.00, 1.00.

Q: And the “90% CI for the ratio (fed/fast) of geometric means, AUC0-t” value (male)?
A: Its value is 97.3, 108.1.

Q: What about the “90% CI for the ratio (fed/fast) of geometric means, AUC0-∞” value (male) of the same compound?
A: The value was 98.5, 109.4.

Q: What about the “90% CI for the ratio (fed/fast) of geometric means, Cmax” value (male) of the same compound?
A: Its value is 71.6, 105.3.

Q: And the Tmax (male)?
A: Its Tmax is 1.00 h.

Q: And the AUC(0-t) (male)?
A: The AUC(0-t) was 14400 ng·h/mL.

Q: What about the AUC(0-inf) (male, AUC0-∞) of the same compound?
A: Its AUC(0-inf) is 15600 ng·h/mL.

Q: What about the Cmax (male, Cmax) of the same compound?
A: The Cmax was 658 ng/mL.

Q: What about the half-life (male, t1/2) of the same compound?
A: Its half-life is 32 h.

Q: And the “median Tmax” value (male, po)?
A: Its value is 1 h.

Q: What about the AUC(0-t) (male, po, Geometric Mean) of the same compound?
A: The AUC(0-t) was 14000 ng·h/mL.

Q: What about the AUC(0-inf) (male, po, AUC0-∞) of the same compound?
A: Its AUC(0-inf) is 15000 ng·h/mL.

Q: What about the AUC(0-inf) (male, po, AUC0-∞ (geometric mean)) of the same compound?
A: Its AUC(0-inf) is 16200 ng·h/mL.

Q: And the AUC(0-inf) (male, po, AUC0-∞, Geometric Mean)?
A: The AUC(0-inf) was 15000 ng·h/mL.

Q: What about the AUC (male, po, AUCO-inf) of the same compound?
A: Its AUC is 16000 ng·h/mL.

Q: What about the AUC (male, po, AUCO-t) of the same compound?
A: The AUC was 14700 ng·h/mL.

Q: And the Cmax (male, po, Cmax)?
A: The Cmax was 646 ng/mL.

Q: What about the Cmax (male, po, Cmax (geometric mean)) of the same compound?
A: Its Cmax is 572 ng/mL.

Q: What about the Cmax (male, po, Cmax, Geometric Mean) of the same compound?
A: Its Cmax is 646 ng/mL.

Q: And the half-life (male, po, T1/2)?
A: The half-life was 33 h.

Q: And the Vd/F (male, po)?
A: Its Vd/F is 308 L.

Q: And the half-life (male, po, t1/2, Geometric Mean)?
A: The half-life was 28.1 h.
